The record followed here is patent publication US7507817B2, “Prostaglandin prodrugs” (Allergan, Inc., priority 2006, dated 2009).

Common to all, as to format: in vivo
Data set [1] relates to normotensive dogs. As to the kind of experiment: Intraocular pressure (IOP) decrease in normotensive dogs. The note with it: once daily for 5 days. The procedure:
(§1) (Z)-7-[(1R,2S,3R,5R)-5-Chloro-2-(3,5-dichloro-phenoxymethyl)-3-hydroxy-cyclopentyl]-hept-5-enoic acid 2-hydroxy-ethyl ester (1) was tested in normotensive dogs at 0.1%, dosing once daily for 5 days. The maximum intraocular pressure (IOP) decrease from baseline was 6.6 mmHg (40%) at 78 h; the maximum ocular surface hyperemia (OSH) score was 0.9 at 50 h. This compound was also tested in laser-induced hypertensive monkeys, using one single day dose. At 0.1%, the maximum IOP decrease from baseline was 12.5 mmHg (33%) at […]
(§2) (Z)-7-[(1R,2S,3R,5R)-5-Chloro-2-(3,5-dichloro-phenoxymethyl)-3-hydroxy-cyclopentyl]-hept-5-enoic acid 2-morpholin-4-yl-ethyl ester (2) was tested in normotensive dogs at 0.1%, dosing once daily for 5 days. The maximum intraocular pressure (IOP) decrease from baseline was 5.1 mmHg (34%) at 78 h; the maximum ocular surface hyperemia (OSH) score was 0.9 at 30 h. This compound was also tested in laser-induced hypertensive monkeys, using one single day dose. At 0.1%, the maximum IOP decrease from baseline was 11.9 mmHg (32%) at 6 h.
(§3) (Z)-7-[(1R,2S,3R,5R)-5-Chloro-2-(3,5-dichloro-phenoxymethyl)-3-hydroxy-cyclopentyl]-hept-5-enoic acid was tested at multiple concentrations in normotensive dogs, dosing once daily for 5 days. At 0.05%, the maximum IOP decrease from baseline was 4.3 mmHg (30%) at 6 h; the maximum OSH score was 0.6 at 6 h. At 0.1%, the maximum IOP decrease from baseline was 4.8 mmHg (34%) at 102 h; the maximum OSH score was 1.3 at 6 h. This compound was also tested in laser-induced hypertensive monkeys, using one single day dose. At 0.1%, the maximum IOP decrease from baseline was 6 mmHg (19%) at 6 h.
(§4) (Z)-7-[(1R,2S,3R,5R)-5-Chloro-2-(3,5-dichloro-phenoxymethyl)-3-hydroxy-cyclopentyl]-hept-5-enoic acid isopropyl ester was tested at multiple concentrations in normotensive dogs, dosing once daily for 5 days. At 0.01%, the maximum intraocular pressure (IOP) decrease from baseline was 1.1 mmHg (7%) at 2 h; the maximum ocular surface hyperemia (OSH) score was 0.6 at 74 h. At 0.05%, the maximum intraocular pressure (IOP) decrease from baseline was 2.8 mmHg (18%) at 6 h; the maximum ocular surface hyperemia (OSH) score was 0.6 at 74 h. This compound was also tested in laser-induced hypertensive monkeys, using one single day dose. At 0.01%, the maximum IOP decrease from baseline was 6.8 mmHg (18%) at 6 h. At 0.05%, the maximum IOP decrease from baseline was 6 mmHg (16%) at 2 h.

The subject of data set [2] is laser-induced hypertensive monkeys. As to the kind of experiment: IOP decrease in laser-induced hypertensive monkeys. The note with it: one single day dose. How it is done: as §1, §2, §3, §4
Data set [3] concerns normotensive dogs. The data set can be described thus: Ocular surface hyperemia (OSH) score in normotensive dogs. Particulars: once daily for 5 days; for maximum OSH score: maximum at 6 h. The procedure: as §1, §2, §3, §4

Take `CC(C)OC(=O)CCC/C=C\C[C@@H]1[C@@H](COc2cc(Cl)cc(Cl)c2)[C@H](O)C[C@H]1Cl` [(Z)-7-[(1R,2S,3R,5R)-5-Chloro-2-(3,5-dichloro-phenoxymethyl)-3-hydroxy-cyclopentyl]-hept-5-enoic acid isopropyl ester]: the “maximum intraocular pressure (IOP) decrease from baseline” value in the data set on normotensive dogs [1] (0.01%, maximum at 2 h) is listed as 1.1 mmHg. For the same compound, the “maximum intraocular pressure (IOP) decrease from baseline (percent)” value in the data set with normotensive dogs [1] (0.01%, maximum at 2 h) was 7%. The “maximum IOP decrease from baseline” value amounted to 2.8 mmHg in the data set with normotensive dogs [1] (0.05%, maximum at 6 h); 6.8 mmHg in data set [2] (0.01%, maximum at 6 h); 6 mmHg in data set [2] (0.05%, maximum at 2 h). Besides, the “maximum IOP decrease from baseline (percent)” value worked out at 18% with normotensive dogs [1] (0.05%, maximum at 6 h); 18% in data set [2] (0.01%, maximum at 6 h); 16% in data set [2] (0.05%, maximum at 2 h). Besides, the “maximum ocular surface hyperemia (OSH) score” value in the data set on normotensive dogs [3] (0.01%, maximum at 74 h) was determined as 0.6; in the data set on normotensive dogs [3] (0.05%, maximum at 74 h) it was 0.6.

With `O=C(CCC/C=C\C[C@@H]1[C@@H](COc2cc(Cl)cc(Cl)c2)[C@H](O)C[C@H]1Cl)OCCN1CCOCC1` [Compound 2, (Z)-7-[(1R,2S,3R,5R)-5-Chloro-2-(3,5-dichloro-phenoxymethyl)-3-hydroxy-cyclopentyl]-hept-5-enoic acid 2-morpholin-4-yl-ethyl ester], in the data set with normotensive dogs [1] (0.1%, maximum at 78 h), the “maximum intraocular pressure (IOP) decrease from baseline” value is 5.1 mmHg and the “maximum intraocular pressure (IOP) decrease from baseline (percent)” value stood at 34%. Besides, in data set [2] (0.1%, maximum at 6 h), the “maximum IOP decrease from baseline” value was determined as 11.9 mmHg and the “maximum IOP decrease from baseline (percent)” value is 32%. Besides, the “maximum ocular surface hyperemia (OSH) score” value with normotensive dogs [3] (0.1%, maximum at 30 h) was found to be 0.9.

As to `O=C(CCC/C=C\C[C@@H]1[C@@H](COc2cc(Cl)cc(Cl)c2)[C@H](O)C[C@H]1Cl)OCCO` [Compound 1, (Z)-7-[(1R,2S,3R,5R)-5-Chloro-2-(3,5-dichloro-phenoxymethyl)-3-hydroxy-cyclopentyl]-hept-5-enoic acid 2-hydroxy-ethyl ester], in the data set on normotensive dogs [1] (0.1%, maximum at 78 h), the “maximum intraocular pressure (IOP) decrease from baseline” value is on record as 6.6 mmHg and the “maximum intraocular pressure (IOP) decrease from baseline (percent)” value worked out at 40%. Also, in data set [2] (0.1%, maximum at 4), the “maximum IOP decrease from baseline” value turned out to be 12.5 mmHg and the “maximum IOP decrease from baseline (percent)” value came to 33%. The “maximum ocular surface hyperemia (OSH) score” value with normotensive dogs [3] (0.1%, maximum at 50 h) is listed as 0.9.

Turning to `O=C(O)CCC/C=C\C[C@@H]1[C@@H](COc2cc(Cl)cc(Cl)c2)[C@H](O)C[C@H]1Cl` [(Z)-7-[(1R,2S,3R,5R)-5-Chloro-2-(3,5-dichloro-phenoxymethyl)-3-hydroxy-cyclopentyl]-hept-5-enoic acid], the “maximum IOP decrease from baseline” value in the data set on normotensive dogs [1] (0.05%, maximum at 6 h) is given as 4.3 mmHg; with normotensive dogs [1] (0.1%, maximum at 102 h) it was 4.8 mmHg; in data set [2] (0.1%, maximum at 6 h), 6 mmHg. Also, the “maximum IOP decrease from baseline (percent)” value in the data set with normotensive dogs [1] (0.05%, maximum at 6 h) turned out to be 30%; in the data set on normotensive dogs [1] (0.1%, maximum at 102 h), 34%; in data set [2] (0.1%, maximum at 6 h), 19%. Also, the “maximum OSH score” value is 0.6 with normotensive dogs [3] (0.05%) and 1.3 in the data set on normotensive dogs [3] (0.1%).
